Test results reported in patent publication US20130344026A1, “Dimeric Smac Mimetics” (priority 2009, published 2013).
Where two headings read alike, the source gives them in different places.

System: PANC-1 cells
Experiment: cell viability assay in PANC-1 cells (compound alone, + 100 ng/ml TNFa, + 300 ng/ml TRAIL)
Assay type: cell-based
[1] = Homo sapiens, PANC-1, compound alone, Tables 6-10, read-out: IC50 (μM) in cell viability assay in PANC-1 cells: Compound alone
[2] = with 100 ng/ml TNFa, Tables 6-10, read-out: IC50 (μM) in cell viability assay in PANC-1 cells: Compound + 100 ng/ml TNFa
[3] = with 300 ng/ml TRAIL, Tables 6-10, read-out: IC50 (μM) in cell viability assay in PANC-1 cells: Compound + 300 ng/ml TRAIL
[4] = Homo sapiens, PANC-1, compound alone, Tables 15-18, read-out: IC50 (uM) in cell viability assay in PANC-1 cells: Cmpnd alone
[5] = with 100 ng/ml TNFa, Tables 15-18, read-out: IC50 (uM) in cell viability assay in PANC-1 cells: Cmpnd + 100 ng/ml TNFa
[6] = with 300 ng/ml TRAIL, Tables 15-18, read-out: IC50 (uM) in cell viability assay in PANC-1 cells: Cmpnd + 300 ng/ml TRAIL
[7] = Homo sapiens, PANC-1 cells, compound alone, read-out: IC50 (uM) in cell viability assay in PANC-1 cells, Cmpnd alone
[8] = PANC-1 cells, + 100 ng/ml TNFa, read-out: IC50 (uM) in cell viability assay in PANC-1 cells, Cmpnd + 100 ng/ml TNFa
[9] = PANC-1 cells, + 300 ng/ml TRAIL, read-out: IC50 (uM) in cell viability assay in PANC-1 cells, Cmpnd + 300 ng/ml TRAIL
[10] = compound alone, Tables 6-10, read-out: IC50 (μM) in cell viability assay in PANC-1 cells: Compound alone

Structure (SMILES) | IC50 [1] [µM] | IC50 [2] [µM] | IC50 [3] [µM] | further results
CN[C@@H](C)C(=O)N[C@H](C(=O)N1CCC[C@H]1C(=O)N[C@H]1c2ccccc2C[C@@H]1OCC#CC#CCO[C@H]1Cc2ccccc2[C@@H]1NC(=O)[C@@H]1CCCN1C(=O)[C@@H](NC(=O)[C@H](C)NC)C(C)(C)C)C(C)(C)C [Compound 121] | > 1 | 0.0013 | 0.0015 | 
C#CC[C@H](NC(=O)[C@H](C)NC)C(=O)N1C[C@@H](NC(=O)c2cc(N)cc(C(=O)N[C@H]3C[C@@H](C(=O)N[C@@H]4CCCc5ccccc54)N(C(=O)[C@@H](NC(=O)[C@H](C)NC)C(C)(C)C)C3)c2)C[C@H]1C(=O)N[C@@H]1CCCc2ccccc21 [Compound H-6] |  |  |  | IC50 [4]: > 1 µM; IC50 [5]: 0.0229 µM; IC50 [6]: 0.0611 µM
CN[C@@H](C)C(=O)N[C@H](C(=O)N[C@@H](CCNC(=O)c1cc(N)cc(C(=O)N[C@H]2C[C@@H](C(=O)N[C@@H]3CCCc4ccccc43)N(C(=O)[C@@H](NC(=O)[C@H](C)NC)C(C)(C)C)C2)c1)C(=O)N[C@@H]1CCCc2ccccc21)C(C)C [Compound 183] | > 1 | 0.044 | 0.061 | 
CN[C@@H](C)C(=O)Nc1nc(CC(=O)NC[C@@H](NC(=O)[C@@H]2CCCN2C(=O)[C@@H](NC(=O)[C@H](C)NC)C(C)(C)C)c2ccccc2)cs1 [Compound 193] | > 1 | > 1 | > 1 | 
CN[C@@H](C)C(=O)N[C@@H](CCC(=O)Nc1cccc(CCc2cccc(NC(=O)CC[C@H](NC(=O)[C@H](C)NC)C(=O)N3CCC[C@H]3C(=O)N[C@@H]3CCCc4ccccc43)c2)c1)C(=O)N1CCC[C@H]1C(=O)N[C@@H]1CCCc2ccccc21 [Compound P2-44] |  |  |  | IC50 [4]: > 1 µM; IC50 [5]: 0.017 µM; IC50 [6]: 0.01 µM
CN[C@@H](C)C(=O)N[C@@H](CCCCCC[C@H](NC(=O)[C@H](C)NC)C(=O)N1c2ccccc2C[C@H]1C(=O)N[C@@H]1CCCc2ccccc21)C(=O)N1c2ccccc2C[C@H]1C(=O)N[C@@H]1CCCc2ccccc21 [Compound 93] | > 1 | 0.299 | 0.327 | 
CN[C@@H](C)C(=O)N[C@H](C(=O)N1C[C@@H](NC(=O)c2cccc(C(=O)N[C@H]3C[C@@H](C(=O)NCCc4ccc(O)c(O)c4)N(C(=O)[C@@H](NC(=O)[C@H](C)NC)C(C)(C)C)C3)c2)C[C@H]1C(=O)NCCc1ccc(O)c(O)c1)C(C)(C)C [Compound 9] | > 1 | > 1 | > 1 | 
CN[C@@H](C)C(=O)N[C@H](C(=O)N1C[C@@H](NC(=O)c2cccc(C(=O)N[C@H]3C[C@@H](C(=O)NCCc4ccc(S(N)(=O)=O)cc4)N(C(=O)[C@@H](NC(=O)[C@H](C)NC)C(C)(C)C)C3)c2)C[C@H]1C(=O)NCCc1ccc(S(N)(=O)=O)cc1)C(C)(C)C [Compound 8] | > 1 | > 1 | > 1 | 
CN[C@@H](C)C(=O)N[C@H](C(=O)N[C@@H](CCNC(=O)c1cc(C(=O)N[C@H]2C[C@@H](C(=O)N[C@@H]3CCCc4ccccc43)N(C(=O)[C@@H](NC(=O)[C@H](C)NC)C(C)(C)C)C2)cc([N+](=O)[O-])c1)C(=O)N[C@H](C)C(C)C)C(C)C [Compound 179] | > 1 | 0.056 | 0.048 | 
CN[C@@H](C)C(=O)N[C@H](C(=O)N1CCC[C@H]1C(=O)N[C@H]1c2ccccc2C[C@@H]1OCCCCCCO[C@H]1Cc2ccccc2[C@@H]1NC(=O)[C@@H]1CCCN1C(=O)[C@@H](NC(=O)[C@H](C)NC)C(C)(C)C)C(C)(C)C [Compound 122] | > 1 | 0.0015 | 0.0014 | 
CN[C@@H](C)C(=O)N[C@H](C(=O)N1CCC[C@H]1C(=O)N[C@H](C)c1ccccc1)[C@H](C)NC(=O)CCCCC(=O)N[C@@H](C)[C@H](NC(=O)[C@H](C)NC)C(=O)N1CCC[C@H]1C(=O)N[C@H](C)c1ccccc1 [Compound 113] | > 1 | 0.208 | 0.203 | 
CN[C@@H](C)C(=O)N[C@@H](CCCCCC[C@H](NC(=O)[C@H](C)NC)C(=O)N1CCC[C@H]1CNC(=O)c1cc2ccccc2cc1OC)C(=O)N1CCC[C@H]1CNC(=O)c1cc2ccccc2cc1OC [Compound 38] | > 1 | > 1 | > 1 | 
CN[C@@H](C)C(=O)N[C@@H](CCCCCC[C@H](NC(=O)[C@H](C)NC)C(=O)N1CC(F)(F)C[C@H]1C(=O)N[C@@H]1CCCc2ccccc21)C(=O)N1CC(F)(F)C[C@H]1C(=O)N[C@@H]1CCCc2ccccc21 [Compound 109] | > 1 | 0.004 | 0.003 | 
CN[C@@H](C)C(=O)NC(C(=O)N1C[C@@H](NC(=O)c2cccc(C(=O)N[C@H]3CC(C(=O)N[C@H](CO)[C@H](O)c4ccccc4)N(C(=O)[C@@H](NC(=O)[C@H](C)NC)C(C)(C)C)C3)c2)CC1C(=O)N[C@H](CO)[C@@H](O)c1ccccc1)C(C)(C)C (stereo partly shown) [Compound 42] | > 1 | 0.753 | 0.645 | 
CN[C@@H](CO)C(=O)N[C@H](C(=O)N1C[C@@H](NC(=O)c2cccc(C(=O)N[C@H]3C[C@@H](C(=O)N[C@H](C)c4ccccc4)N(C(=O)[C@@H](NC(=O)[C@H](CO)NC)C(C)(C)C)C3)c2)C[C@H]1C(=O)N[C@H](C)c1ccccc1)C(C)(C)C [Compound P3-90] |  |  |  | IC50 [7]: > 1 µM; IC50 [8]: 0.007 µM; IC50 [9]: 0.021 µM
CN[C@@H](C)C(=O)N[C@@H](CC#CC#CC[C@H](NC(=O)[C@H](C)NC)C(=O)N1CCC[C@H]1CNC(=O)c1ccccc1)C(=O)N1CCC[C@H]1CNC(=O)c1ccccc1 [Compound 14] | > 1 | > 1 | > 1 | 
CN[C@@H](C)C(=O)N[C@H](C(=O)N1C[C@@H](NC(=O)c2cccc(C(=O)N[C@H]3C[C@@H](C(=O)N[C@@H]4CCCc5ccc(Br)cc54)N(C(=O)[C@@H](NC(=O)[C@H](C)NC)C(C)(C)C)C3)c2)C[C@H]1C(=O)N[C@@H]1CCCc2ccc(Br)cc21)C(C)(C)C (single isomer, unassigned) [Compound 63] |  | 0.143 | 0.162 | IC50 [10]: > 1 µM
CNC(C)C(=O)Nc1nc(-c2ccccc2)c(C(=O)NC[C@@H](NC(=O)[C@@H]2CCCN2C(=O)[C@@H](NC(=O)[C@H](C)NC)C(C)(C)C)c2ccccc2)s1 (stereo partly shown) [Compound 192] | > 1 | 0.659 | > 1 | 
CN[C@@H](C)C(=O)N[C@H](C(=O)N1CCC[C@H]1c1cc(C(=O)OC)c(-c2cn(CC#CC#CCn3cc(-c4oc([C@@H]5CCCN5C(=O)[C@@H](NC(=O)[C@H](C)NC)C(C)(C)C)cc4C(=O)OC)c4ccccc43)c3ccccc23)o1)C(C)(C)C [Compound P4-25] |  |  |  | IC50 [4]: > 1 µM; IC50 [5]: 0.0342 µM; IC50 [6]: 0.0408 µM
CN[C@@H](C)C(=O)N[C@H](C(=O)N1C[C@@H](Oc2cccc(CCCCc3cccc(O[C@H]4C[C@@H](C(=O)N[C@@H]5CCCc6ccccc65)N(C(=O)[C@@H](NC(=O)[C@H](C)NC)C(C)(C)C)C4)c3)c2)C[C@H]1C(=O)N[C@@H]1CCCc2ccccc21)C(C)(C)C [Compound P3-104] |  |  |  | IC50 [7]: > 1 µM; IC50 [8]: 0.042 µM; IC50 [9]: 0.042 µM
C[C@H](N)C(=O)N[C@H](C(=O)N1C[C@@H](NC(=O)c2cccc(C(=O)N[C@H]3C[C@@H](C(=O)N[C@H]4CCCc5ccccc54)N(C(=O)[C@@H](NC(=O)[C@H](C)N)C(C)(C)C)C3)c2)C[C@H]1C(=O)N[C@H]1CCCc2ccccc21)C(C)(C)C [Compound P3-106] |  |  |  | IC50 [7]: > 1 µM; IC50 [8]: 0.193 µM; IC50 [9]: 0.115 µM
CN[C@@H](C)C(=O)N[C@H](C(=O)N1C[C@@H](OC(=O)c2cccc(C(=O)O[C@H]3C[C@@H](C(=O)N[C@H]4CCCc5ccccc54)N(C(=O)[C@@H](NC(=O)[C@H](C)NC)C(C)(C)C)C3)c2)C[C@H]1C(=O)N[C@H]1CCCc2ccccc21)C(C)(C)C [Compound P3-105] |  |  |  | IC50 [7]: > 1 µM
CN[C@@H](C)C(=O)N[C@H](C(=O)N1C[C@@H](NC(=O)c2cc(C(=O)O)cc(C(=O)N[C@H]3C[C@@H](C(=O)N[C@@H]4CCCc5ccccc54)N(C(=O)[C@@H](NC(=O)[C@H](C)NC)C(C)(C)C)C3)c2)C[C@H]1C(=O)N[C@@H]1CCCc2ccccc21)C(C)(C)C [Compound 127] | > 1 | 0.032 | 0.028 | 
CN[C@@H](C)C(=O)N[C@H](C(=O)N1C[C@@H](NC(=O)c2cccc(C(=O)N[C@H]3C[C@@H](C(=O)NC4CCSc5ccccc54)N(C(=O)[C@@H](NC(=O)[C@H](C)NC)C(C)(C)C)C3)c2)C[C@H]1C(=O)NC1CCSc2ccccc21)C(C)(C)C (single isomer, unassigned) [Compound 67] | > 1 | 0.191 | 0.22 | 
CN[C@@H](C)C(=O)N[C@H](C(=O)N1C[C@@H](NC(=O)c2cc(C(=O)N[C@H]3C[C@@H](C(=O)N[C@H](C)c4ccccc4)N(C(=O)[C@@H](NC(=O)[C@H](C)NC)C(C)(C)C)C3)n(C)n2)C[C@H]1C(=O)N[C@H](C)c1ccccc1)C(C)(C)C [Compound P3-107] |  |  |  | IC50 [7]: > 1 µM; IC50 [8]: 0.015 µM; IC50 [9]: 0.02 µM
CC[C@@H](NC(=O)[C@@H]1C[C@H](NC(=O)c2cccc(C(=O)N[C@H]3C[C@@H](C(=O)N[C@H](CC)c4ccccc4)N(C(=O)[C@@H](NC(=O)[C@H](C)NC)C(C)(C)C)C3)c2)CN1C(=O)[C@@H](NC(=O)[C@H](C)NC)C(C)(C)C)c1ccccc1 [Compound 2] |  | 0.062 | 0.054 | IC50 [10]: > 1 µM
